The test system of the experiment is HT-29. In words: MTT viability assay, HT-29. The conditions noted are these: 72 h of exposure, TP53 mutant, mean of six replicates of one experiment, read-out: IC50 Cancer Cell Lines (C) HT-29. The class given is cell-based, human. The method, then:
HCT-116 (CCL-247), LoVo (CCL-229), DLD-1 (CCL-221), HT-29 (HTB-38) and CoN (CCD-841) human CRC cells were obtained from the ATCC (Manassas, VA, USA). HCT-116 cells were cultured in Dulbecco’s Modified Eagle’s Medium (DMEM; Corning Cellgro, Corning, NY, USA) for the invasion assays or RPMI-1640 medium (Lonza, Westburg, The Netherlands) for all other assays. The LoVo, DLD-1, and HT-29 cell lines were grown in RPMI-1640 for all experiments. Media were supplemented with 10% fetal bovine serum (FBS; Gibco, Waltham, MA, USA or Greiner Bio-One, Vilvoorde, Belgium), 100 U/mL penicillin, and 100 µg/mL streptomycin (Gibco, Waltham, MA). Cells were grown at 37 °C and 5% CO2 in a humidified atmosphere. The CoN cells were cultured in Eagle’s Minimum Essential Medium (Lonza, Westburg, The Netherlands) supplemented with 10% FBS (South America origin, Greiner Bio-One, Vilvoorde, Belgium). HCT-116 p53^-/- cells were obtained from Denis L.J. LaFontaine, Université Libre de Bruxelles, Brussels, Belgium.
Effects of compounds on viability were assessed by means of 3-(4,5-dimethylthiazol-2-yl)-2,5-diphenyltetrazolium bromide (MTT; Sigma-Aldrich, Diegem, Belgium) colorimetric assay as previously reported. Briefly, cells were seeded in flat-bottom 96-well plates at the appropriate cell density 24 h prior to the exposure or not to the compound of interest. Each compound was first solubilized in dimethylsulfoxide (DMSO) at 10^−2 M concentration and further diluted in a serial manner in the culture medium. Nine concentrations ranging from 10 nM to 100 µM were tested in sextuplicate within the assay. Evaluation of the cell viability was conducted after 72 h of exposure to the compound by means of MTT assay.

IC50 data for one molecule are collected here from paper PMC9496155, “Amaryllidaceae Alkaloids Decrease the Proliferation, Invasion, and Secretion of Clinically Relevant Cytokines by Cultured Human Colon Cancer Cells” (Biomolecules, 2022).

`O=C1N[C@@H]2C(=C[C@H](O)[C@@H](O)[C@H]2O)c2cc3c(c(O)c21)OCO3` [NAR, narciclasine]: the IC50 was determined as 0.032 µM.
